# Data taken from PubChem BioAssay (NCI).
#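 Five compound concentrations were applied to cells in 96-well plates for 48 hours; endpoints were derived by simple linear interpolation of the resulting dose-response curve. TGI marks complete inhibition of growth.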
# Tests used:
# Assay in all cases: NCI tumour cell line growth inhibition, 48 h
# SNB-19 CNS = system: SNB-19 CNS
# CAKI-1 renal = system: CAKI-1 renal
# HCC-2998 colon = system: HCC-2998 colon
# DMS 273 small cell lung = system: DMS 273 small cell lung
# RPMI-8226 leukemia = system: RPMI-8226 leukemia
# KM12 colon = system: KM12 colon
# A498 renal = system: A498 renal
# MALME-3M melanoma = system: MALME-3M melanoma
# HL-60(TB) leukemia = system: HL-60(TB) leukemia
# DLD-1 colon = system: DLD-1 colon
# NCI/ADR-RES ovarian = system: NCI/ADR-RES ovarian
# IGROV1 ovarian = system: IGROV1 ovarian
# MCF7 breast = system: MCF7 breast
# SF-295 CNS = system: SF-295 CNS
# P388 leukemia = system: P388 leukemia
# HOP-62 NSCLC = system: HOP-62 NSCLC
# SNB-75 CNS = system: SNB-75 CNS
# M19-MEL melanoma = system: M19-MEL melanoma
# UO-31 renal = system: UO-31 renal
# COLO 205 colon = system: COLO 205 colon
# K-562 leukemia = system: K-562 leukemia
# KM20L2 colon = system: KM20L2 colon
# SN12C renal = system: SN12C renal
# SK-MEL-2 melanoma = system: SK-MEL-2 melanoma
# P388/ADR leukemia = system: P388/ADR leukemia
# OVCAR-3 ovarian = system: OVCAR-3 ovarian
# HCT-116 colon = system: HCT-116 colon
# XF 498 CNS = system: XF 498 CNS
# LOX IMVI melanoma = system: LOX IMVI melanoma
# SN12K1 renal = system: SN12K1 renal
# NCI-H226 lung = system: NCI-H226 lung
# CCRF-CEM leukemia = system: CCRF-CEM leukemia
# SW-620 colon = system: SW-620 colon
# RXF 393 renal = system: RXF 393 renal
# OVCAR-8 ovarian = system: OVCAR-8 ovarian
# SK-OV-3 ovarian = system: SK-OV-3 ovarian
# SF-539 CNS = system: SF-539 CNS
# U251 CNS = system: U251 CNS
# A549 NSCLC = system: A549 NSCLC
# HOP-92 NSCLC = system: HOP-92 NSCLC
# UACC-62 melanoma = system: UACC-62 melanoma
# SNB-78 CNS = system: SNB-78 CNS
# SK-MEL-28 melanoma = system: SK-MEL-28 melanoma
# NCI-H460 lung = system: NCI-H460 lung
# HOP-18 NSCLC = system: HOP-18 NSCLC
# MOLT-4 leukemia = system: MOLT-4 leukemia
# DMS 114 small cell lung = system: DMS 114 small cell lung
# EKVX NSCLC = system: EKVX NSCLC
# UACC-257 melanoma = system: UACC-257 melanoma
# OVCAR-5 ovarian = system: OVCAR-5 ovarian
# HCT-15 colon = system: HCT-15 colon
# SF-268 CNS = system: SF-268 CNS
# NCI-H522 lung = system: NCI-H522 lung
# OVCAR-4 ovarian = system: OVCAR-4 ovarian
# HT29 colon = system: HT29 colon
# SK-MEL-5 melanoma = system: SK-MEL-5 melanoma
# NCI-H23 lung = system: NCI-H23 lung
structure (smiles),measurement,setting,value
Cn1c(/C=C/CO)c(CO)c2c1C(=O)C=C(N1CC1)C2=O,TGI,SNB-19 CNS,0.0369 µM
same,TGI,CAKI-1 renal,0.0588 µM
same,TGI,HCC-2998 colon,0.0203 µM
same,TGI,DMS 273 small cell lung,< 0.0107 µM
same,TGI,RPMI-8226 leukemia,0.0805 µM
same,TGI,KM12 colon,0.0172 µM
same,TGI,A498 renal,0.0235 µM
same,TGI,MALME-3M melanoma,0.024 µM
same,TGI,HL-60(TB) leukemia,0.682 µM
same,TGI,DLD-1 colon,0.662 µM
same,TGI,NCI/ADR-RES ovarian,0.0346 µM
same,TGI,IGROV1 ovarian,0.197 µM
same,TGI,MCF7 breast,0.0156 µM
same,TGI,SF-295 CNS,< 0.01 µM
same,TGI,P388 leukemia,4.9 µM
same,TGI,HOP-62 NSCLC,< 0.0139 µM
same,TGI,SNB-75 CNS,< 0.0124 µM
same,TGI,M19-MEL melanoma,< 0.011 µM
same,TGI,UO-31 renal,< 0.01 µM
same,TGI,COLO 205 colon,0.0236 µM
same,TGI,K-562 leukemia,0.378 µM
same,TGI,KM20L2 colon,0.0639 µM
same,TGI,SN12C renal,0.0253 µM
same,TGI,SK-MEL-2 melanoma,< 0.01 µM
same,TGI,P388/ADR leukemia,3.91 µM
same,TGI,OVCAR-3 ovarian,0.0561 µM
same,TGI,HCT-116 colon,1.02 µM
same,TGI,XF 498 CNS,0.0171 µM
same,TGI,LOX IMVI melanoma,0.0102 µM
same,TGI,SN12K1 renal,0.0224 µM
same,TGI,NCI-H226 lung,0.0602 µM
same,TGI,CCRF-CEM leukemia,23.9 µM
same,TGI,SW-620 colon,0.104 µM
same,TGI,RXF 393 renal,0.0112 µM
same,TGI,OVCAR-8 ovarian,0.0936 µM
same,TGI,SK-OV-3 ovarian,0.0855 µM
same,TGI,SF-539 CNS,< 0.0163 µM
same,TGI,U251 CNS,0.0101 µM
same,TGI,A549 NSCLC,< 0.01 µM
same,TGI,HOP-92 NSCLC,0.488 µM
same,TGI,UACC-62 melanoma,< 0.0115 µM
same,TGI,SNB-78 CNS,7.21 µM
same,TGI,SK-MEL-28 melanoma,0.202 µM
same,TGI,NCI-H460 lung,< 0.01 µM
same,TGI,HOP-18 NSCLC,< 0.01 µM
same,TGI,MOLT-4 leukemia,4.15 µM
same,TGI,DMS 114 small cell lung,0.0153 µM
same,TGI,EKVX NSCLC,0.178 µM
same,TGI,UACC-257 melanoma,0.018 µM
same,TGI,OVCAR-5 ovarian,< 0.0273 µM
same,TGI,HCT-15 colon,< 0.0159 µM
same,TGI,SF-268 CNS,0.0379 µM
same,TGI,NCI-H522 lung,< 0.018 µM
same,TGI,OVCAR-4 ovarian,0.223 µM
same,TGI,HT29 colon,0.0534 µM
same,TGI,SK-MEL-5 melanoma,< 0.015 µM
O=C(O)CCC(NC(=O)c1ccc(Nc2nc3ccc(C(F)(F)F)cc3nc2-c2ccccc2)cc1)C(=O)O (centres undefined),TGI,SNB-19 CNS,> 100 µM
same,TGI,CAKI-1 renal,> 100 µM
same,TGI,HCC-2998 colon,> 100 µM
same,TGI,DMS 273 small cell lung,> 100 µM
same,TGI,RPMI-8226 leukemia,> 100 µM
same,TGI,KM12 colon,> 100 µM
same,TGI,A498 renal,> 100 µM
same,TGI,MALME-3M melanoma,> 100 µM
same,TGI,HL-60(TB) leukemia,> 100 µM
same,TGI,DLD-1 colon,> 100 µM
same,TGI,NCI/ADR-RES ovarian,> 100 µM
same,TGI,IGROV1 ovarian,> 100 µM
same,TGI,MCF7 breast,> 100 µM
same,TGI,SF-295 CNS,> 100 µM
same,TGI,P388 leukemia,> 100 µM
same,TGI,HOP-62 NSCLC,> 100 µM
same,TGI,SNB-75 CNS,> 100 µM
same,TGI,M19-MEL melanoma,> 100 µM
same,TGI,UO-31 renal,> 100 µM
same,TGI,COLO 205 colon,> 100 µM
same,TGI,K-562 leukemia,> 100 µM
same,TGI,KM20L2 colon,> 100 µM
same,TGI,SN12C renal,> 100 µM
same,TGI,SK-MEL-2 melanoma,> 100 µM
same,TGI,P388/ADR leukemia,> 100 µM
same,TGI,OVCAR-3 ovarian,> 100 µM
same,TGI,HCT-116 colon,> 100 µM
same,TGI,XF 498 CNS,> 100 µM
same,TGI,LOX IMVI melanoma,> 100 µM
same,TGI,SN12K1 renal,> 100 µM
same,TGI,NCI-H226 lung,> 100 µM
same,TGI,CCRF-CEM leukemia,> 100 µM
same,TGI,NCI-H23 lung,> 100 µM
same,TGI,SW-620 colon,> 100 µM
same,TGI,RXF 393 renal,> 100 µM
same,TGI,OVCAR-8 ovarian,> 100 µM
same,TGI,SK-OV-3 ovarian,> 100 µM
same,TGI,SF-539 CNS,> 100 µM
same,TGI,U251 CNS,> 100 µM
same,TGI,A549 NSCLC,> 100 µM
same,TGI,HOP-92 NSCLC,> 100 µM
same,TGI,UACC-62 melanoma,> 100 µM
same,TGI,SNB-78 CNS,> 100 µM
same,TGI,SK-MEL-28 melanoma,> 100 µM
same,TGI,NCI-H460 lung,> 100 µM
same,TGI,HOP-18 NSCLC,> 100 µM
same,TGI,MOLT-4 leukemia,> 100 µM
same,TGI,DMS 114 small cell lung,> 100 µM
same,TGI,EKVX NSCLC,> 100 µM
same,TGI,UACC-257 melanoma,> 100 µM
same,TGI,OVCAR-5 ovarian,> 100 µM
same,TGI,HCT-15 colon,> 100 µM
same,TGI,SF-268 CNS,> 100 µM
same,TGI,NCI-H522 lung,> 100 µM
same,TGI,OVCAR-4 ovarian,> 100 µM
same,TGI,HT29 colon,> 100 µM
same,TGI,SK-MEL-5 melanoma,> 100 µM
COC(=O)C(C/C=C(\C)c1ccccc1)C(C)=O (centres undefined),TGI,SNB-19 CNS,> 100 µM
same,TGI,HCC-2998 colon,> 100 µM
same,TGI,DMS 273 small cell lung,> 100 µM
same,TGI,RPMI-8226 leukemia,> 100 µM
same,TGI,KM12 colon,> 100 µM
same,TGI,A498 renal,> 100 µM
same,TGI,MALME-3M melanoma,> 100 µM
same,TGI,HL-60(TB) leukemia,53.6 µM
same,TGI,DLD-1 colon,> 100 µM
same,TGI,NCI/ADR-RES ovarian,> 100 µM
same,TGI,IGROV1 ovarian,> 100 µM
same,TGI,MCF7 breast,> 100 µM
same,TGI,SF-295 CNS,> 100 µM
same,TGI,P388 leukemia,> 82.1 µM
same,TGI,HOP-62 NSCLC,> 100 µM
same,TGI,SNB-75 CNS,> 100 µM
same,TGI,M19-MEL melanoma,> 100 µM
same,TGI,UO-31 renal,> 100 µM
same,TGI,COLO 205 colon,> 100 µM
same,TGI,K-562 leukemia,> 100 µM
same,TGI,KM20L2 colon,> 100 µM
same,TGI,SN12C renal,> 100 µM
same,TGI,SK-MEL-2 melanoma,> 100 µM
same,TGI,P388/ADR leukemia,> 100 µM
same,TGI,OVCAR-3 ovarian,> 100 µM
same,TGI,HCT-116 colon,> 100 µM
same,TGI,XF 498 CNS,> 100 µM
same,TGI,LOX IMVI melanoma,> 100 µM
same,TGI,SN12K1 renal,> 82.8 µM
same,TGI,NCI-H226 lung,> 100 µM
same,TGI,CCRF-CEM leukemia,> 100 µM
same,TGI,NCI-H23 lung,> 100 µM
same,TGI,SW-620 colon,> 100 µM
same,TGI,RXF 393 renal,> 100 µM
same,TGI,OVCAR-8 ovarian,> 100 µM
same,TGI,SK-OV-3 ovarian,> 100 µM
same,TGI,SF-539 CNS,> 100 µM
same,TGI,U251 CNS,> 100 µM
same,TGI,A549 NSCLC,> 100 µM
same,TGI,HOP-92 NSCLC,98.3 µM
same,TGI,UACC-62 melanoma,> 100 µM
same,TGI,SNB-78 CNS,> 100 µM
same,TGI,SK-MEL-28 melanoma,> 100 µM
same,TGI,NCI-H460 lung,> 100 µM
same,TGI,HOP-18 NSCLC,> 100 µM
same,TGI,MOLT-4 leukemia,51.6 µM
same,TGI,DMS 114 small cell lung,> 95.9 µM
same,TGI,EKVX NSCLC,> 100 µM
same,TGI,UACC-257 melanoma,> 87.4 µM
same,TGI,OVCAR-5 ovarian,> 100 µM
same,TGI,HCT-15 colon,> 100 µM
same,TGI,SF-268 CNS,> 100 µM
same,TGI,NCI-H522 lung,> 100 µM
same,TGI,OVCAR-4 ovarian,> 100 µM
same,TGI,HT29 colon,> 100 µM
same,TGI,SK-MEL-5 melanoma,> 100 µM
